Results on eight compounds are retold here after ChEMBL document CHEMBL6103630, “Discovery of Novel 2,4,5-Trisubstituted Pyrimidine Derivatives as Potent and Selective FGFR Inhibitors against Gatekeeper Mutants for the Treatment of NSCLC” (J Med Chem, 2025).

SMILES strings stand for the structures. The source made the active and inactive calls. No cut-off for these calls is given here.

The test system of test [1] is NCI-H1581. In words: cells. The settings on record: Homo sapiens, NCI-H1581, 48 h.
Description: Antiproliferative activity against human NCI-H1581 cells assessed as inhibition of cell proliferation incubated for 48 hrs by MTT assay
The test system of a further test is A549. In words: cells. Particulars: Homo sapiens, A549, 48 h.
Test [2] addresses Fibroblast growth factor receptor 1 (Homo sapiens) (UniProt P11362). In words: Reversible inhibition of FGFR1 (unknown origin) phosphorylation in human NCI-H1581 cells at 1 uM preincubated with compound for 2 hrs followed by compound washout and measured after 0.5 hrs by Western blotting analysis. Format: cell-based.
The target is the same in test [3]. Particulars: dose 1000.0 nM.
Description: Inhibition of FGFR1 (unknown origin) at 1000 nM by caliper mobility shift assay relative to control
Test [4] deals with NCI-H1581. Kind of test: Antitumor activity against human NCI-H1581 cells xenografted in BALB/c nude mouse assessed as tumor growth inhibition at 60 mg/kg relative to control. Particulars: read-out: TGI. Format: functional.

Fibroblast growth factor receptor 1 (Homo sapiens), sequence (P11362 22-822 limits assumed): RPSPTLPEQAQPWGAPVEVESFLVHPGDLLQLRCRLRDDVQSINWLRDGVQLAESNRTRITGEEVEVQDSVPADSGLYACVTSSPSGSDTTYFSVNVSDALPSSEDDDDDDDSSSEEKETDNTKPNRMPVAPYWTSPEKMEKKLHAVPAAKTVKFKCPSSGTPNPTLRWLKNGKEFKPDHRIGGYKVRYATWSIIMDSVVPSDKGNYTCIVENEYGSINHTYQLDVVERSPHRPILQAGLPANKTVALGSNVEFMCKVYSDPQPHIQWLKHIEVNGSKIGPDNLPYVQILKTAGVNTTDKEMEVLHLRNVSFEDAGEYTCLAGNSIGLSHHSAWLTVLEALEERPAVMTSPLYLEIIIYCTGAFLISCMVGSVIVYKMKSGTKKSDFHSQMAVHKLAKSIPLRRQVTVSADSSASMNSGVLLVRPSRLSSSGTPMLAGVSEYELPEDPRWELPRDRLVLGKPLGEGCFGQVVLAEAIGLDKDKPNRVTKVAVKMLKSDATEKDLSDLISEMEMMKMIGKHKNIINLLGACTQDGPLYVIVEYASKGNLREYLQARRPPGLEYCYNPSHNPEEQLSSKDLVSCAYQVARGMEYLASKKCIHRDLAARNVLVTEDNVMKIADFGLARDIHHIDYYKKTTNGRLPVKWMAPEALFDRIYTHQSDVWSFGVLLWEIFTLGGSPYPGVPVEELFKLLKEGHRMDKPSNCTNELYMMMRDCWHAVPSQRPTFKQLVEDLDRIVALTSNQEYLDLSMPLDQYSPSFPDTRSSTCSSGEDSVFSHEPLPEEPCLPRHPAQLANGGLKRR
Description for A549: Antiproliferative activity against human A549 cells assessed as inhibition of cell proliferation incubated for 48 hrs by MTT assay

`C=CC(=O)Nc1ccc(Nc2nc(Nc3ccc(N4C[C@@H](C)N[C@@H](C)C4)cc3)ncc2Cl)cc1Cl`: the half-maximal inhibitory concentration (IC50) in the test with NCI-H1581 [1] came out at 210 nM; in the test on A549, 1180 nM.

Turning to `Cc1ccc(C(=O)Nc2ccc(CN3CCN(C)CC3)c(C(F)(F)F)c2)cc1C#Cc1cnc2cccnn12`, the inhibition result in test [2] is “inactive”.

Regarding `C=CC(=O)Nc1ccccc1Nc1nc(Nc2ccc(N3CCN(C)CC3)cc2)ncc1Cl`, in test [3], the inhibition was 94.9%.

Consider `C=CC(=O)Nc1ccc(Nc2nc(Nc3ccc(N4CCN(C)CC4)c(F)c3)ncc2Cl)cc1Cl`, for which the IC50 with NCI-H1581 [1] is 130 nM; in the test on A549, 4150 nM.

As for `C=CC(=O)Nc1ccc(Nc2nc(Nc3ccc(N4CCN(CC)CC4)c(OC)c3)ncc2Cl)cc1Cl`, the IC50 came out at 170 nM in the test with NCI-H1581 [1] and 9030 nM in the test on A549.

In the case of `C=CC(=O)N1CC[C@H](n2nc(C#Cc3cc(OC)cc(OC)c3)c3c(N)ncnc32)C1` [FUTIBATINIB], the 50% inhibitory concentration (IC50) in the test with NCI-H1581 [1] was 5 nM; in the test with A549 it was above 20000 nM. The inhibition in vivo at 60 mg/kg in the test on NCI-H1581 [4] worked out at 54%.

For the compound `C=CC(=O)Nc1ccc(Nc2nc(Nc3ccc(N4CCN(C)CC4)nc3)ncc2Cl)cc1Cl`, the IC50 is 470 nM in the test on NCI-H1581 [1] and 3180 nM with A549.

Regarding `C=CC(=O)Nc1ccc(Nc2nc(Nc3ccc(N4CCC(N(C)C)CC4)c(OC)c3)ncc2Cl)cc1Cl`, the figures for the IC50 in the test on NCI-H1581 [1] and in the test on A549 were 120 nM and 12100 nM, respectively.
